{"source": "patent US7314726B2", "about": "“Beta secretase exosite binding peptides and methods for identifying beta secretase modulators” (Bristol-Myers Squibb Company, priority 2002, dated 2008)", "molecular_target": "BACE (Homo sapiens, UniProt P56817)", "sequence (P56817 46-460 limits assumed)": "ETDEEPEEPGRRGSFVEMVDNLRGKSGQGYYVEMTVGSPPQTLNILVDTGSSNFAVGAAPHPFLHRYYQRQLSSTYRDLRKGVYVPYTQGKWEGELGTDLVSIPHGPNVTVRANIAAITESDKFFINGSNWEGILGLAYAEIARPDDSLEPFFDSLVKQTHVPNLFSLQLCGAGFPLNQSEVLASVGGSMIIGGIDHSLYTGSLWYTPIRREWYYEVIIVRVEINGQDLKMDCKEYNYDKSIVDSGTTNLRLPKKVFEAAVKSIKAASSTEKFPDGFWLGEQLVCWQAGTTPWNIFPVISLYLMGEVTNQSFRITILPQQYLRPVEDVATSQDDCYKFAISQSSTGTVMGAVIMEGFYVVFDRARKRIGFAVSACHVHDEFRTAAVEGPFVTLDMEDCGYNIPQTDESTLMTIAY", "assay": "Phage ELISA of phage-displayed peptides on immobilised BACE", "format": "binding", "design": "The cDNA for the catalytic domain of human BACE (residues 1-460) was PCR-amplified; human IgG1 heavy chain (C, cleaved yes); thrombin cleavage site (C); made in house; host or cells: CHO DG44 cells (stably transfected, secreted)", "conditions": "clones from solid phase panning at pH 7.0", "protocol": "Two highly selected and homologous 12 mer phage peptides bound BACE specifically and reproducibly in phage-ELISA tests. Bristol-Myers Squibb fUSE5-based C4C, C6C, 5- and 15 mer libraries, and M13-based C7C libraries, and 7- and 12 mer libraries obtained from New England Biolabs, Beverly, Mass. were panned for three cycles against BACE (produced as described herein in Example 3). BACE was immobilized by coating at 0.5 μg/well in 4 wells of Dynex Immulon 4HBX plates overnight at 4° C. in 0.1M NaHCO3 buffer, pH 9.0. Panning was by standard procedures at room temperature that involved blocking wells with 2% BSA in PBS and elution with 0.1M HCL, pH 2.2. The vector NTI alignment tool and visual inspection of sequences were employed to analyze the selected peptides.\nAfter sequencing approximately 20-50 clones from each library after three cycles of selection, we prepared essentially all possible candidate clones (39 clones in total) for phage-ELISA to obtain direct evidence for affinity to BACE. […] We therefore sequenced additional 12 mer clones to try to find additional candidate clones. […] This […] (SEQ ID NO:20) peptide is homologous to […] (SEQ ID NO:19) and consistent with the specific binding of both those peptides to BACE. The […] (SEQ ID NO:20) peptide and […] (SEQ ID NO:19) peptides were the two most efficiently recovered clones with 13 and 9 copies, respectively. […]", "data": [{"substance": "Ac-NLTTYPYFIPLP-OH [BMS-561871]", "values": [{"measurement": "phage ELISA binding to BACE", "value": "specifically bind to BACE"}]}]}
